pIC50: −log10 of the molar value. Values after ≈ are worked out from the molar mass of the structure shown. Values joined by “and” are separate entries in the source; they are usually repeats but may differ in a detail not shown here. Equal values may be shown once.
Assays:
[1] = target: T1, Amine oxidase [flavin-containing] B (Homo sapiens, UniProt P27338); assay: Inhibition of human recombinant MAO-B using benzylamine as substrate; format: toxicity
T1 sequence (P27338 whole entry): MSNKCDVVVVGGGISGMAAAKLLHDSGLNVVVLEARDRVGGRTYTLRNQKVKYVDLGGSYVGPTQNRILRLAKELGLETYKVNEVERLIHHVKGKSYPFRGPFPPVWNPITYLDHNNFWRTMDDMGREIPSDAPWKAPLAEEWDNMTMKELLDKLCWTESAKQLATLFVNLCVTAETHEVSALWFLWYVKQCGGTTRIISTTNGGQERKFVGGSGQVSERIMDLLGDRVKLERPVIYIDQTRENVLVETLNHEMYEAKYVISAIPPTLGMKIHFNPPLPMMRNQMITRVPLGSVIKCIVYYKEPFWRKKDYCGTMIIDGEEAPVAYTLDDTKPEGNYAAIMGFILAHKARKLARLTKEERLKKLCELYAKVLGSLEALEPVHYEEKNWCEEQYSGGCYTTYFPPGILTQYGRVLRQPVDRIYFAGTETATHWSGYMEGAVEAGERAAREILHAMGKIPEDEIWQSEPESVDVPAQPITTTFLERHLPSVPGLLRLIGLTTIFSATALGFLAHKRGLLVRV

MAO-B = target: T2, MAO-B (Homo sapiens, UniProt P27338); assay: Potency index, ratio of test compound IC50 to linezolid IC50 for inhibition of human recombinant MAO-B using benzylamine as substrate; format: toxicity; conditions: probe benzylamine, read-out: Ratio IC50
T2 sequence (P27338 whole entry): T1 sequence (P27338 whole entry)

[2] = test system: Mycobacterium tuberculosis; assay: Antimycobacterial activity against Mycobacterium tuberculosis H37Rv assessed as prevention of bacterial growth measured after 7 days by alamar blue assay; format: functional; conditions: 168 h, time 7 day
[3] = target: T3, Amine oxidase [flavin-containing] A (Homo sapiens, UniProt P21397); assay: Inhibition of human recombinant MAO-A using kynuramine as substrate; format: toxicity
T3 sequence (P21397 whole entry): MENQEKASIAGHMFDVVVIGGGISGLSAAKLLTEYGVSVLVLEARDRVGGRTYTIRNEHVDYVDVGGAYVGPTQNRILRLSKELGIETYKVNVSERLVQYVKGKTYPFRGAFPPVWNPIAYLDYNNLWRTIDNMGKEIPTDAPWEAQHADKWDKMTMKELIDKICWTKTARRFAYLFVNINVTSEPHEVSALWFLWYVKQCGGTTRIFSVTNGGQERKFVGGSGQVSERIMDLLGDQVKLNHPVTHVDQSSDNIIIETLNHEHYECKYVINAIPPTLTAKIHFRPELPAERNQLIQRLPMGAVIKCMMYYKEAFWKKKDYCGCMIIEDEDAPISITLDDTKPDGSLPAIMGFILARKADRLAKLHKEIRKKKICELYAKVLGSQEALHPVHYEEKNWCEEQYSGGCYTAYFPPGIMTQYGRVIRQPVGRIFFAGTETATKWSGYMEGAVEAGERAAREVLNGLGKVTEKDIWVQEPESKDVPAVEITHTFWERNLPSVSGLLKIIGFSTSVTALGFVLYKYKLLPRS

[4] = test system: Mycobacterium tuberculosis; assay: Antimycobacterial activity against Mycobacterium tuberculosis clinical isolate without mutation incubated for 1 week by resazurin dye based fluorescence analysis; format: functional; conditions: time 1 weeks
[5] = target: T1, Amine oxidase [flavin-containing] B; assay: Inhibition of human recombinant MAO-B using tyramine as substrate by ELISA; format: toxicity
[6] = target: T3, Amine oxidase [flavin-containing] A; assay: Inhibition of human recombinant MAO-A using tyramine as substrate by ELISA; format: toxicity
Staphylococcus aureus = assay: Antibacterial activity against Staphylococcus aureus ATCC 25923; format: functional

**Q.** How did the pIC50 [1] turn out when `CCS(=O)(=O)NC[C@H]1CN(c2ccc(N3CCOCC3)c(F)c2)C(=O)O1` was run?
**A.** < 4.40

**Q.** What about the selectivity ratio (MAO-B) of the same compound?
**A.** 64.6

**Q.** And the MIC [2]?
**A.** 2.01 µM (≈ 0.779 µg/mL)

**Q.** What about the pIC50 [3] of the same compound?
**A.** < 4.40

**Q.** What about the MIC50 [4] of the same compound?
**A.** 0.74 µM (≈ 0.287 µg/mL)

**Q.** `O=C(NC[C@H]1CN(c2ccc(N3CCOCC3)c(F)c2)C(=O)O1)C1CC1` was tested. Which pIC50 [1] did it give?
**A.** 4.52

**Q.** And the MIC [2]?
**A.** 2.08 µM (≈ 0.756 µg/mL)

**Q.** And the pIC50 [3]?
**A.** < 4.40

**Q.** And the MIC50 [4]?
**A.** 1.11 µM (≈ 0.403 µg/mL)

**Q.** `O=C1O[C@H](Cn2ccnn2)CN1c1ccc(N2CCOCC2)c(F)c1` was tested. Which pIC50 [5] did it give?
**A.** 4.81

**Q.** What about the pIC50 [6] of the same compound?
**A.** 4.50

**Q.** And the MIC (Staphylococcus aureus)?
**A.** 1 µg/mL (≈ 2.88 µM)

**Q.** With `O=C1O[C@@H](CNS(=O)(=O)c2cccs2)CN1c1ccc(N2CCOCC2)c(F)c1` as the compound, how does the pIC50 [1] read?
**A.** 4.56

**Q.** What about the MIC [2] of the same compound?
**A.** 1.76 µM (≈ 0.777 µg/mL)

**Q.** And the pIC50 [3]?
**A.** < 4.40

**Q.** What about the MIC50 [4] of the same compound?
**A.** 4.01 µM (≈ 1.77 µg/mL)

**Q.** With `CC(C)(C)c1ccc(S(=O)(=O)NC[C@H]2CN(c3ccc(N4CCOCC4)c(F)c3)C(=O)O2)cc1` as the compound, how does the pIC50 [1] read?
**A.** 4.88

**Q.** And the MIC [2]?
**A.** 1.58 µM and > 25 µg/mL

**Q.** And the pIC50 [3]?
**A.** 4.71

**Q.** `CCCCS(=O)(=O)NC[C@H]1CN(c2ccc(N3CCOCC3)c(F)c2)C(=O)O1` was tested. Which pIC50 [1] did it give?
**A.** 4.60

**Q.** What about the MIC [2] of the same compound?
**A.** 1.87 µM and > 25 µg/mL

**Q.** What about the pIC50 [3] of the same compound?
**A.** < 4.40

**Q.** `O=C(NC[C@H]1CN(c2ccc(N3CCOCC3)c(F)c2)C(=O)O1)c1cccs1` was tested. Which pIC50 [1] did it give?
**A.** 4.48

**Q.** And the MIC [2]?
**A.** 1.92 µM (≈ 0.778 µg/mL)

**Q.** And the pIC50 [3]?
**A.** < 4.40

**Q.** What about the MIC50 [4] of the same compound?
**A.** 3.12 µM (≈ 1.27 µg/mL)

**Q.** Which results are given for `CC(=O)NC[C@H]1CN(c2ccc(N3CCOCC3)c(F)c2)C(=O)O1` [LINEZOLID]?
**A.** MIC [2]: 2.31 µM (≈ 0.779 µg/mL); MIC50 [4]: 0.34 µM (≈ 0.115 µg/mL)

**Q.** Which results are given for `O=C1O[C@@H](CNS(=O)(=O)C2CC2)CN1c1ccc(N2CCOCC2)c(F)c1`?
**A.** pIC50 [1]: 4.94; MIC [2]: 1.95 µM and > 25 µg/mL; pIC50 [3]: < 4.40

**Q.** For `NNC(=O)c1ccncc1` [ISONIAZID], which MIC50 [4] is on record?
**A.** <0.2 µM

**Q.** For `CO[C@H]1/C=C/O[C@@]2(C)Oc3c(C)c(O)c4c(O)c(c(/C=N/N5CCN(C)CC5)c(O)c4c3C2=O)NC(=O)/C(C)=C\C=C\[C@H](C)[C@H](O)[C@@H](C)[C@@H](O)[C@@H](C)[C@H](OC(C)=O)[C@@H]1C` [RIFAMPIN], which MIC50 [4] is on record?
**A.** <0.04 µM

**Q.** With `CS(=O)(=O)NC[C@H]1CN(c2ccc(N3CCOCC3)c(F)c2)C(=O)O1` as the compound, how does the pIC50 [1] read?
**A.** 5.53

**Q.** What about the MIC [2] of the same compound?
**A.** 2.14 µM (≈ 0.799 µg/mL)

**Q.** What about the pIC50 [3] of the same compound?
**A.** < 4.40

**Q.** And the MIC50 [4]?
**A.** 1.11 µM (≈ 0.414 µg/mL)
